According to PubChem BioAssay (NCI):
Values joined by “and” are separate entries in the source; they are usually repeats but may differ in a detail not shown here. Equal entries are not always repeated.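 Following 48 hours of exposure in 96-well plates, responses at five concentrations were used to interpolate endpoints linearly. GI50 marks 50% less growth. TGI is the concentration that stops growth completely.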

Assays:
Assay in all cases: NCI anticancer screen, dose series, 48 h
ACHN renal = test system: ACHN renal
EKVX NSCLC = test system: EKVX NSCLC
HOP-92 NSCLC = test system: HOP-92 NSCLC
HS 578T breast = test system: HS 578T breast
MOLT-4 leukemia = test system: MOLT-4 leukemia
NCI-H226 lung = test system: NCI-H226 lung
OVCAR-3 ovarian = test system: OVCAR-3 ovarian
RXF 393 renal = test system: RXF 393 renal
SF-295 CNS = test system: SF-295 CNS
UACC-257 melanoma = test system: UACC-257 melanoma

Row | Structure (SMILES) | TGI (ACHN renal) | TGI (EKVX NSCLC) | TGI (HOP-92 NSCLC) | TGI (HS 578T breast) | TGI (MOLT-4 leukemia) | TGI (NCI-H226 lung) | TGI (OVCAR-3 ovarian) | TGI (RXF 393 renal) | TGI (SF-295 CNS) | TGI (UACC-257 melanoma) | GI50 (ACHN renal) | GI50 (EKVX NSCLC) | GI50 (HOP-92 NSCLC) | GI50 (HS 578T breast) | GI50 (MOLT-4 leukemia) | GI50 (NCI-H226 lung) | GI50 (OVCAR-3 ovarian) | GI50 (RXF 393 renal) | GI50 (SF-295 CNS) | GI50 (UACC-257 melanoma)
1 | COc1cc(C2c3cc4c(cc3OC(NNC(N)=O)C2C)OCO4)cc(OC)c1O (stereo unspecified) | > 100 µM | > 100 µM | > 90.2 µM | > 100 µM | > 100 µM | 27.1 µM | 10.1 µM | > 20.9 µM | > 85.7 µM | > 100 µM | – | – | – | – | – | – | – | – | – | –
2 | N#Cc1ccccc1-c1nc2c3c(c(N)ccc3n1)C(=O)c1ccccc1-2 | > 100 µM | > 100 µM | > 100 µM | > 100 µM | > 100 µM | > 100 µM | > 100 µM | > 100 µM | > 100 µM | > 100 µM | – | – | – | – | – | – | – | – | – | –
3 | CCOC(=O)c1nc2ccc(C(F)(F)F)cc2nc1Oc1cc(OC)cc(OC)c1 | > 100 µM | > 100 µM | > 100 µM | 64.2 µM | > 100 µM | > 100 µM | > 100 µM | > 100 µM | > 100 µM | > 100 µM | – | – | – | – | – | – | – | – | – | –
4 | COC(=O)C(Cc1ccccc1)NP(=O)(O)OCC1OC(n2cc(F)c(=O)[nH]c2=O)CC1O (stereo unspecified) | > 100 µM | > 100 µM | > 55.2 µM | > 100 µM | > 93.9 µM | > 100 µM | > 100 µM | > 100 µM | > 100 µM | > 100 µM | – | – | – | – | – | – | – | – | – | –
5 | COC(=O)c1c(O)ccc2c1c1c(n2Cc2cccc(C)c2)C(=O)c2ccccc2C1=O | 24.5 µM | 37.9 µM | 19.8 µM | 34.9 µM | 17.5 µM | 38.8 µM | 22.8 µM | 26.1 µM | 30.2 µM | 31.2 µM | – | – | – | – | – | – | – | – | – | –
6 | Cc1ccc2c(c1C)C(=O)/C(=C/c1ccccc1C(=O)O)C2 | > 100 µM | > 100 µM | > 100 µM | > 100 µM | > 100 µM | > 100 µM | > 100 µM | > 100 µM | > 100 µM | > 100 µM | – | – | – | – | – | – | – | – | – | –
7 | C=C(C)C(O)C(O)c1c(OC)ccc2ccc(=O)oc12 (stereo unspecified) | > 100 µM | > 100 µM | > 100 µM | > 100 µM | > 100 µM | > 100 µM | > 100 µM | > 100 µM | > 100 µM | > 100 µM | – | – | – | – | – | – | – | – | – | –
8 | CC(C)(Oc1ccc(Cl)cc1)C(=O)N(C(=O)N1CCC(c2ccccc2)CC1)c1ccccc1 | > 100 µM | > 100 µM | > 100 µM | > 100 µM | > 28.3 µM | > 100 µM | > 100 µM | > 100 µM | > 100 µM | > 100 µM | – | – | – | – | – | – | – | – | – | –
9 | CC1(C)CC(C)(C)C1=NNC(N)=O | > 100 µM | > 100 µM | > 100 µM | > 100 µM | > 100 µM | > 100 µM | > 100 µM | > 100 µM | > 100 µM | > 100 µM | – | – | – | – | – | – | – | – | – | –
10 | CCOc1cc(C2CC(c3ccc(NS(=O)(=O)c4cc([N+](=O)[O-])ccc4C)cc3)=NN2c2ccc([N+](=O)[O-])cc2[N+](=O)[O-])ccc1O (stereo unspecified) | 21.7 µM | 22 µM | 29.3 µM | 57.4 µM | > 100 µM | 24 µM | 29 µM | 27 µM | 41.1 µM | 59.5 µM | – | – | – | – | – | – | – | – | – | –
11 | O=C(O)c1nc(-c2ccccc2)[nH]c1C(=O)O | 30.7 µM | 33 µM | 32.4 µM | > 61.2 µM | 9.64 µM | 33.1 µM | 26.4 µM | 26.5 µM | 30.9 µM | 30.3 µM | – | – | – | – | – | – | – | – | – | –
12 | COc1ccc(C(SC2C(O)C(CO)OC2n2ccc(N)nc2=O)(c2ccccc2)c2ccc(OC)cc2)cc1 (stereo unspecified) | > 100 µM | 50.4 µM | 37.3 µM | 48.1 µM | > 100 µM | 28.3 µM | 48.5 µM | 31.5 µM | 49.8 µM | 41.7 µM | – | – | – | – | – | – | – | – | – | –
13 | CC(=O)c1c(C(F)(F)F)n([O-])c2cc(Cl)c(Cl)cc2[n+]1=O | 1.92 µM | 2.89 µM | 0.88 µM | 2.38 µM | 0.544 µM | 3.08 µM | 3.19 µM | 2.51 µM | 2.27 µM | 2.11 µM | – | – | – | – | – | – | – | – | – | –
14 | O=c1oc2ccccc2cc1-c1cn2cc(Cl)ccc2n1 | 3.31 µM | > 100 µM | 36.4 µM | 8.19 µM | > 36.1 µM | > 57.3 µM | 2.51 µM | 9.48 µM | 5.36 µM | > 45.9 µM | – | – | – | – | – | – | – | – | – | –
15 | CC1(O)CC(=O)c2c(cc3ccc(-c4c5c(c(O)c6c(O)cccc46)C(=O)CC(C)(O)C5)c(O)c3c2O)C1 (stereo unspecified) | 11 µM | 4.35 µM | 0.815 µM | 4.4 µM | 8.36 µM | 2.16 µM | 0.646 µM | 1.11 µM | 0.874 µM | 1.3 µM | – | – | – | – | – | – | – | – | – | –
16 | CC1(C)[C@H]2CC[C@]1(C)[C@H](OC(=O)NNC(=O)O[C@@H]1C[C@@H]3CC[C@@]1(C)C3(C)C)C2 | 36.7 µM | 31.2 µM | 33.6 µM | 36.6 µM | 27.3 µM | 34.1 µM | 25.6 µM | 24.7 µM | 28.8 µM | 33 µM | – | – | – | – | – | – | – | – | – | –
17 | C/C(Nc1ccc(F)cc1)=C1/CCOC1=O | > 100 µM | > 100 µM | > 100 µM | > 100 µM | > 100 µM | > 100 µM | > 100 µM | > 100 µM | > 100 µM | > 100 µM | – | – | – | – | – | – | – | – | – | –
18 | S=C1SCN(Cc2ccco2)CN1c1ccc(Br)cc1 | 64.2 µM | 64.6 µM | 60.7 µM | > 100 µM | 47.4 µM | 69.1 µM | 21.1 µM | > 100 µM | 28.7 µM | 42.6 µM | – | – | – | – | – | – | – | – | – | –
19 | O=C(c1cc(Cl)ccc1Cl)N1CCN(C(=O)c2cc(Cl)ccc2Cl)CC1 | > 100 µM | > 100 µM | > 100 µM | > 100 µM | > 100 µM | > 100 µM | > 100 µM | > 100 µM | > 100 µM | > 100 µM | – | – | – | – | – | – | – | – | – | –
20 | CCOC(=O)c1cc2c(C(=O)c3ccc([N+](=O)[O-])cc3)c(C(C)=O)ccc2[nH]1 | > 100 µM | > 100 µM | 44.6 µM | 50.1 µM | > 100 µM | > 100 µM | > 100 µM | 80.5 µM | > 100 µM | > 100 µM | – | – | – | – | – | – | – | – | – | –
21 | COC(=O)[C@H]1CO[C@H]2C/C(C)=C/CC/C(C)=C/CC[C@@]3(C)O[C@@H]3C[C@H]21 | > 50 µM | > 50 µM | > 50 µM | 36.5 µM | 28.7 µM | 29.2 µM | 47.3 µM | 42.6 µM | > 50 µM | > 50 µM | – | – | – | – | – | – | – | – | – | –
22 | CCCCCCCCCCCCCCCCCCNc1ccn(C2OC(COP(=O)(O)OCC3OC(n4cc(F)c(NCCCCCCCCCCCCCCCCCC)nc4=O)CC3O)C(O)C2O)c(=O)n1 (stereo unspecified) | > 100 µM | > 100 µM | > 100 µM | > 100 µM | > 100 µM | > 100 µM | > 100 µM | > 100 µM | > 100 µM | > 100 µM | – | – | – | – | – | – | – | – | – | –
23 | O=C1/C(=N\S(=O)(=O)c2ccccc2)C([n+]2ccc(Cc3ccccc3)cc2)=C([O-])c2ccccc21 | 4.33 µM | 3.27 µM | 12.7 µM | 6.09 µM | 4.49 µM | 3.73 µM | 2.2 µM | 6.59 µM | 3.22 µM | 2.54 µM | – | – | – | – | – | – | – | – | – | –
24 | CCOC(=O)c1c(N2CCCC2)ncn(Cc2ccccc2)c1=S | > 100 µM | > 100 µM | > 100 µM | > 100 µM | > 100 µM | > 100 µM | > 100 µM | > 100 µM | > 100 µM | > 100 µM | – | – | – | – | – | – | – | – | – | –
25 | CSc1n[nH]c(N)c1C(=O)Nc1ccc(C)cc1 | > 100 µM | > 100 µM | 68.3 µM | > 100 µM | > 100 µM | > 100 µM | > 100 µM | > 100 µM | > 100 µM | > 100 µM | – | – | – | – | – | – | – | – | – | –
26 | C[C@@H]1CC[C@H]2C(C(O)CCCCC(O)C3=C(C(F)(F)F)O[C@@H]4O[C@@]5(C)CC[C@H]6[C@H](C)CC[C@@H]3[C@@]46OO5)=C(C(F)(F)F)O[C@@H]3O[C@@]4(C)CC[C@@H]1[C@]32OO4 (stereo partly specified) | > 100 µM | > 100 µM | > 100 µM | > 100 µM | > 100 µM | > 100 µM | > 100 µM | > 100 µM | > 100 µM | > 100 µM | 13.9 µM | 31.9 µM | 11.2 µM | 37.8 µM | 6.35 µM | 33.6 µM | 7.26 µM | 9.06 µM | 53.7 µM | 14.9 µM
27 | CCCC(=O)NC(Nc1ccc(S(=O)(=O)Nc2nc(C)cc(C)n2)cc1)(C(F)(F)F)C(F)(F)F | > 100 µM | > 100 µM | > 100 µM | > 100 µM | > 100 µM | > 100 µM | > 100 µM | > 100 µM | > 100 µM | > 100 µM | – | – | – | – | – | – | – | – | – | –
28 | O=c1[nH]nc(-c2ccccc2)n1/N=C/c1cccnc1 | > 100 µM | > 100 µM | > 100 µM | > 100 µM | > 100 µM | > 100 µM | > 100 µM | > 100 µM | > 100 µM | > 100 µM | – | – | – | – | – | – | – | – | – | –
29 | CCOP(=O)(OCC)C1CC(n2cc(C)c(=O)[nH]c2=O)OC1CO (stereo unspecified) | > 100 µM | > 100 µM | > 100 µM | > 100 µM | > 100 µM | > 100 µM | > 100 µM | > 100 µM | > 100 µM | > 100 µM | – | 44.1 µM and > 100 µM | – | – | – | – | – | – | – | –
